Assay results taken from BindingDB's records for doi:10.1080/14756360601114536 (University of Tehran, 2007).

Key:
[1] = target: T1, Polyphenol oxidase 2 (Agaricus bisporus, UniProt O42713); assay: Catecholase Activity Assay; settings: pH 6.8; 20 °C
T1 sequence (O42713 whole entry): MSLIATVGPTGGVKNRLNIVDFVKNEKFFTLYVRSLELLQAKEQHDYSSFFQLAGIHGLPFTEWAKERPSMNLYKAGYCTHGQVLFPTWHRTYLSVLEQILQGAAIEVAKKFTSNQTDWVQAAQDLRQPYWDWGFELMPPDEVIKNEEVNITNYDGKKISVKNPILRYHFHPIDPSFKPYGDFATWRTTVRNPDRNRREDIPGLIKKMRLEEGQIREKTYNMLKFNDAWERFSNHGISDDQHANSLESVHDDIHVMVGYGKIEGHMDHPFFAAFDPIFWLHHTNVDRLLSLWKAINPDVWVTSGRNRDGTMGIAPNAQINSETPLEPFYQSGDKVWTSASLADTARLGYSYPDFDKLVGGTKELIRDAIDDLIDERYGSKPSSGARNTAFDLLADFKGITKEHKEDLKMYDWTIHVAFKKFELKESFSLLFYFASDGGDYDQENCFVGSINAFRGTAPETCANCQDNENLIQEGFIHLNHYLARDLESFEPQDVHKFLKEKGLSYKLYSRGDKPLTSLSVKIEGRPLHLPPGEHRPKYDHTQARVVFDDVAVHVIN
Experimental: (§1) Kinetic assay of catecholase and cresolase activities was carried out through depletion of MeBACat and MePAPh for 1 or 2 min with enzyme concentrations of 11.11 and 112.68 ug/mL at wavelenghts of 473 nm and 352 nm using a Cary spectrophotometer, 100 Biomodel with jacketed cell holders.

[2] = target: T1, Polyphenol oxidase 2; assay: Cresolase Activity Assay; settings: pH 6.8; 20 °C
Experimental: as §1

## CC(C)COC(=S)[S][Na] [Iso-butyl xanthate, II]
[1]
  Ki: 21.8 µM
[2]
  Ki: 7.2 µM

## CC(C)CCOC(=S)[S][Na] [Iso-pentyl xanthate, III]
[1]
  Ki: 42.2 µM
[2]
  Ki: 6.1 µM

## CC(C)OC(=S)[S][Na] [Iso-propyl xanthate, I]
[1]
  Ki: 12.9 µM
[2]
  Ki: 9.8 µM
